Measurements published in patent US20250084061A1, “SULFONYL FUNCTIONAL COMPOUND, METHODS AND USES THEREOF” (Hubei Biopesticide Engineering Research Centre, priority 2023, published 2025).
Like-named read-outs stand apart in the source and are kept apart here.

How the values were obtained:
[1] = system: Alternaria kikuchiana; assay: Bactericidal (fungicidal) activity by microdilution; assay type: cell-based
[2] = system: Magnaporthe oryzae; assay type: cell-based
[3] = system: Rhizoctonia solani; assay: Bactericidal (fungicidal) activity by microdilution; assay type: cell-based
[4] = system: Septoria nodorum Berk.; assay: as above; assay type: cell-based
[5] = system: Corynespora leaf spot of tomato; assay: as above; assay type: cell-based
[6] = system: Thanatephorus cucumeris; assay: as above; assay type: cell-based
[7] = system: Fusarium oxysporum f. sp. Niveum; assay: as above; assay type: cell-based
[8] = system: Aphiscraccivora; assay: Insecticidal activity, dipping method; assay type: in vivo
Experimental: (§1) The insecticidal activity of sulfonyl functional compounds in the above embodiments were tested for agricultural biological functions, and the targets of insecticidal activity were Heliothis armigera, Plutella xylostella and Aphiscraccivora.
(§2) The insecticidal activity of sulfonyl functional compounds against Aphiscraccivora was tested by the method of dipping. Mother liquors were prepared by the sulfonyl functional compounds provided in the above embodiments dissolved in ethanol, respectively. 500 mg/L, 250 mg/L or 125 mg/L test solution could be prepared by diluting the different mother liquors with a liquor that contained 0.1 mL/L of emulgator (Tween-80). Every test solution was tested twice (Rep1 and Rep2). A blank control was set up, and the activity results were compared with the blank control. The mortality rate of 0˜30%, 30˜50%, 50-70%, 70˜90%, or 90˜100% could be orderly set as 0, 3, 5, 7, or 9.

[9] = system: Pythium aphanidermatum; assay: Bactericidal (fungicidal) activity by microdilution; assay type: cell-based
[10] = system: Fusarium culmorum; assay: as above; assay type: cell-based
[11] = system: Botrytis cinerea; assay: as above; assay type: cell-based
[12] = system: Heliothis armigera; assay: Insecticidal activity, artificial feed surface coating method; assay type: in vivo; conditions: Helicoverpa armigera, read-out: Insecticidal activity (mortality rate grade) Heliothis armigera
Experimental: as §1
(§3) Using Heliothis armigera and Plutella xylostella as target, the insecticidal activities of sulfonyl functional compounds were tested by conventional artificial feed surface coating method. 300 microliters of artificial feed and 20 microliters of test solution were added to each well of the 24-well cell culture plate. The test solution was used in different concentrations and repeated twice (Rep1 and Rep2). The concentrations of the test solution were 500 mg/L, 250 mg/L and 125 mg/L, respectively.
as §2

[13] = system: Plutella xylostella; assay: as above; assay type: in vivo; conditions: Plutella xylostella, read-out: Insecticidal activity (mortality rate grade) Plutella xylostella
Experimental: as §1, §3, §2

[14] = system: Leptosphaeria biglobosa; assay: Bactericidal (fungicidal) activity by microdilution; assay type: cell-based
[15] = system: Colletotrichum gloeobosporioids; assay: as above; assay type: cell-based
[16] = system: Verticillium dahliae.kieb.; assay: as above; assay type: cell-based

## COC(=O)Nc1nc2ccccc2n1CCCS(=O)(=O)O [III-1]
[1]; 12.5 mg/L
  Fungicidal activity (antibacterial rate grade) Alternaria kikuchiana: 3 (The antibacterial rate of 0˜30% could be set as 3 if the growth of the target is normal and consistent with that of the blank control)
[1]; 25 mg/L
  Fungicidal activity (antibacterial rate grade) Alternaria kikuchiana: 3 (The antibacterial rate of 0˜30% could be set as 3 if the growth of the target is normal and consistent with that of the blank control)
[1]; 50 mg/L
  Fungicidal activity (antibacterial rate grade) Alternaria kikuchiana: 3 (The antibacterial rate of 0˜30% could be set as 3 if the growth of the target is normal and consistent with that of the blank control)
[1]; 100 mg/L
  Fungicidal activity (antibacterial rate grade) Alternaria kikuchiana: 3 (The antibacterial rate of 0˜30% could be set as 3 if the growth of the target is normal and consistent with that of the blank control)
[2]; 12.5 mg/L
  Fungicidal activity (antibacterial rate grade) Magnaporthe oryzae: 9 (The antibacterial rate of 90˜100% could be set as 9 if the target has totally no growth)
[2]; 25 mg/L
  Fungicidal activity (antibacterial rate grade) Magnaporthe oryzae: 9 (The antibacterial rate of 90˜100% could be set as 9 if the target has totally no growth)
[2]; 50 mg/L
  Fungicidal activity (antibacterial rate grade) Magnaporthe oryzae: 9 (The antibacterial rate of 90˜100% could be set as 9 if the target has totally no growth)
[2]; 100 mg/L
  Fungicidal activity (antibacterial rate grade) Magnaporthe oryzae: 9 (The antibacterial rate of 90˜100% could be set as 9 if the target has totally no growth)
[3]; 12.5 mg/L
  Fungicidal activity (antibacterial rate grade) Rhizoctonia solani: 3 (The antibacterial rate of 0˜30% could be set as 3 if the growth of the target is normal and consistent with that of the blank control)
[3]; 25 mg/L
  Fungicidal activity (antibacterial rate grade) Rhizoctonia solani: 3 (The antibacterial rate of 0˜30% could be set as 3 if the growth of the target is normal and consistent with that of the blank control)
[3]; 50 mg/L
  Fungicidal activity (antibacterial rate grade) Rhizoctonia solani: 3 (The antibacterial rate of 0˜30% could be set as 3 if the growth of the target is normal and consistent with that of the blank control)
[3]; 100 mg/L
  Fungicidal activity (antibacterial rate grade) Rhizoctonia solani: 3 (The antibacterial rate of 0˜30% could be set as 3 if the growth of the target is normal and consistent with that of the blank control)
[4]; 12.5 mg/L
  Fungicidal activity (antibacterial rate grade) Septoria nodorum Berk.: 9 (The antibacterial rate of 90˜100% could be set as 9 if the target has totally no growth)
[4]; 25 mg/L
  Fungicidal activity (antibacterial rate grade) Septoria nodorum Berk.: 9 (The antibacterial rate of 90˜100% could be set as 9 if the target has totally no growth)
[4]; 50 mg/L
  Fungicidal activity (antibacterial rate grade) Septoria nodorum Berk.: 9 (The antibacterial rate of 90˜100% could be set as 9 if the target has totally no growth)
[4]; 100 mg/L
  Fungicidal activity (antibacterial rate grade) Septoria nodorum Berk.: 9 (The antibacterial rate of 90˜100% could be set as 9 if the target has totally no growth)
[5]; 12.5 mg/L
  Fungicidal activity (antibacterial rate grade) Corynespora leaf spot of tomato: 3 (The antibacterial rate of 0˜30% could be set as 3 if the growth of the target is normal and consistent with that of the blank control)
[5]; 25 mg/L
  Fungicidal activity (antibacterial rate grade) Corynespora leaf spot of tomato: 3 (The antibacterial rate of 0˜30% could be set as 3 if the growth of the target is normal and consistent with that of the blank control)
[5]; 50 mg/L
  Fungicidal activity (antibacterial rate grade) Corynespora leaf spot of tomato: 7 (The antibacterial rate of 70˜90% could be set as 7 if the target has small amounts of growth)
[5]; 100 mg/L
  Fungicidal activity (antibacterial rate grade) Corynespora leaf spot of tomato: 7 (The antibacterial rate of 70˜90% could be set as 7 if the target has small amounts of growth)
[6]; 12.5 mg/L
  Fungicidal activity (antibacterial rate grade) Thanatephorus cucumeris: 9 (The antibacterial rate of 90˜100% could be set as 9 if the target has totally no growth)
[6]; 25 mg/L
  Fungicidal activity (antibacterial rate grade) Thanatephorus cucumeris: 9 (The antibacterial rate of 90˜100% could be set as 9 if the target has totally no growth)
[6]; 50 mg/L
  Fungicidal activity (antibacterial rate grade) Thanatephorus cucumeris: 9 (The antibacterial rate of 90˜100% could be set as 9 if the target has totally no growth)
[6]; 100 mg/L
  Fungicidal activity (antibacterial rate grade) Thanatephorus cucumeris: 9 (The antibacterial rate of 90˜100% could be set as 9 if the target has totally no growth)
[7]; 12.5 mg/L
  Fungicidal activity (antibacterial rate grade) Fusarium oxysporum f. sp. Niveum: 9 (The antibacterial rate of 90˜100% could be set as 9 if the target has totally no growth)
[7]; 25 mg/L
  Fungicidal activity (antibacterial rate grade) Fusarium oxysporum f. sp. Niveum: 9 (The antibacterial rate of 90˜100% could be set as 9 if the target has totally no growth)
[7]; 50 mg/L
  Fungicidal activity (antibacterial rate grade) Fusarium oxysporum f. sp. Niveum: 9 (The antibacterial rate of 90˜100% could be set as 9 if the target has totally no growth)
[7]; 100 mg/L
  Fungicidal activity (antibacterial rate grade) Fusarium oxysporum f. sp. Niveum: 9 (The antibacterial rate of 90˜100% could be set as 9 if the target has totally no growth)
[8]; 125 mg/L test solution
  Insecticidal activity (mortality rate grade) Aphiscraccivora: 0 (mortality rate of 0˜30%)
[8]; 250 mg/L test solution
  Insecticidal activity (mortality rate grade) Aphiscraccivora: 0 (mortality rate of 0˜30%)
[8]; 500 mg/L test solution
  Insecticidal activity (mortality rate grade) Aphiscraccivora: 0 (mortality rate of 0˜30%)
[9]; 12.5 mg/L
  Fungicidal activity (antibacterial rate grade) Pythium aphanidematum: 3 (The antibacterial rate of 0˜30% could be set as 3 if the growth of the target is normal and consistent with that of the blank control)
[9]; 25 mg/L
  Fungicidal activity (antibacterial rate grade) Pythium aphanidematum: 3 (The antibacterial rate of 0˜30% could be set as 3 if the growth of the target is normal and consistent with that of the blank control)
[9]; 50 mg/L
  Fungicidal activity (antibacterial rate grade) Pythium aphanidematum: 3 (The antibacterial rate of 0˜30% could be set as 3 if the growth of the target is normal and consistent with that of the blank control)
[9]; 100 mg/L
  Fungicidal activity (antibacterial rate grade) Pythium aphanidematum: 3 (The antibacterial rate of 0˜30% could be set as 3 if the growth of the target is normal and consistent with that of the blank control)
[10]; 12.5 mg/L
  Fungicidal activity (antibacterial rate grade) Fusarium culmorum: 9 (The antibacterial rate of 90˜100% could be set as 9 if the target has totally no growth)
[10]; 25 mg/L
  Fungicidal activity (antibacterial rate grade) Fusarium culmorum: 9 (The antibacterial rate of 90˜100% could be set as 9 if the target has totally no growth)
[10]; 50 mg/L
  Fungicidal activity (antibacterial rate grade) Fusarium culmorum: 9 (The antibacterial rate of 90˜100% could be set as 9 if the target has totally no growth)
[10]; 100 mg/L
  Fungicidal activity (antibacterial rate grade) Fusarium culmorum: 9 (The antibacterial rate of 90˜100% could be set as 9 if the target has totally no growth)
[11]; 12.5 mg/L
  Fungicidal activity (antibacterial rate grade) Botrytis cinerea: 3 (The antibacterial rate of 0˜30% could be set as 3 if the growth of the target is normal and consistent with that of the blank control)
[11]; 25 mg/L
  Fungicidal activity (antibacterial rate grade) Botrytis cinerea: 3 (The antibacterial rate of 0˜30% could be set as 3 if the growth of the target is normal and consistent with that of the blank control)
[11]; 50 mg/L
  Fungicidal activity (antibacterial rate grade) Botrytis cinerea: 3 (The antibacterial rate of 0˜30% could be set as 3 if the growth of the target is normal and consistent with that of the blank control)
[11]; 100 mg/L
  Fungicidal activity (antibacterial rate grade) Botrytis cinerea: 3 (The antibacterial rate of 0˜30% could be set as 3 if the growth of the target is normal and consistent with that of the blank control)
[12]; 125 mg/L test solution
  mortality at 125 µg/mL: 0 to 30%
[12]; 250 mg/L test solution
  mortality at 250 µg/mL: 0 to 30%
[12]; 500 mg/L test solution
  mortality at 500 µg/mL: 0 to 30%
[13]; 125 mg/L test solution
  mortality at 125 µg/mL: 0 to 30%
[13]; 250 mg/L test solution
  mortality at 250 µg/mL: 0 to 30%
[13]; 500 mg/L test solution
  mortality at 500 µg/mL: 0 to 30%
[14]; 12.5 mg/L
  Fungicidal activity (antibacterial rate grade) Leptosphaeria biglobosa: 9 (The antibacterial rate of 90˜100% could be set as 9 if the target has totally no growth)
[14]; 25 mg/L
  Fungicidal activity (antibacterial rate grade) Leptosphaeria biglobosa: 9 (The antibacterial rate of 90˜100% could be set as 9 if the target has totally no growth)
[14]; 50 mg/L
  Fungicidal activity (antibacterial rate grade) Leptosphaeria biglobosa: 9 (The antibacterial rate of 90˜100% could be set as 9 if the target has totally no growth)
[14]; 100 mg/L
  Fungicidal activity (antibacterial rate grade) Leptosphaeria biglobosa: 9 (The antibacterial rate of 90˜100% could be set as 9 if the target has totally no growth)
[15]; 12.5 mg/L
  Fungicidal activity (antibacterial rate grade) Colletotrichum gloeobosporioids: 9 (The antibacterial rate of 90˜100% could be set as 9 if the target has totally no growth)
[15]; 25 mg/L
  Fungicidal activity (antibacterial rate grade) Colletotrichum gloeobosporioids: 9 (The antibacterial rate of 90˜100% could be set as 9 if the target has totally no growth)
[15]; 50 mg/L
  Fungicidal activity (antibacterial rate grade) Colletotrichum gloeobosporioids: 9 (The antibacterial rate of 90˜100% could be set as 9 if the target has totally no growth)
[15]; 100 mg/L
  Fungicidal activity (antibacterial rate grade) Colletotrichum gloeobosporioids: 9 (The antibacterial rate of 90˜100% could be set as 9 if the target has totally no growth)
[16]; 12.5 mg/L
  Fungicidal activity (antibacterial rate grade) Verticillium dahliae. kieb.: 9 (The antibacterial rate of 90˜100% could be set as 9 if the target has totally no growth)
[16]; 25 mg/L
  Fungicidal activity (antibacterial rate grade) Verticillium dahliae. kieb.: 9 (The antibacterial rate of 90˜100% could be set as 9 if the target has totally no growth)
[16]; 50 mg/L
  Fungicidal activity (antibacterial rate grade) Verticillium dahliae. kieb.: 9 (The antibacterial rate of 90˜100% could be set as 9 if the target has totally no growth)
[16]; 100 mg/L
  Fungicidal activity (antibacterial rate grade) Verticillium dahliae. kieb.: 9 (The antibacterial rate of 90˜100% could be set as 9 if the target has totally no growth)
